Key:
[1] = target: T1, CDK9/cyclin T1 (Homo sapiens) (UniProt O60563+P50750); assay: Inhibition of human recombinant CDK9/cyclin T expressed in baculovirus-infected Sf9 cells assessed as enzyme residual activity using YSPTSPSYSPTSPSYSPTSPSKKKK as substrate at 10 uM incubated for 30 mins in presence of ATP by ADP-Glo kinase assay
[2] = target: T1, CDK9/cyclin T1 (Homo sapiens); assay: Inhibition of human recombinant CDK9/cyclin T expressed in baculovirus-infected Sf9 cells assessed as enzyme residual activity using YSPTSPSYSPTSPSYSPTSPSKKKK as substrate at 1 uM incubated for 30 mins in presence of ATP by ADP-Glo kinase assay
[3] = target: Casein kinase I isoform epsilon (Homo sapiens) (UniProt P49674); assay: Inhibition of human recombinant CK1 epsilon expressed in baculovirus-infected Sf9 cells assessed as enzyme residual activity using RRKHAAIGSpAYSITA as substrate at 10 uM incubated for 30 mins in presence of ATP by ADP-Glo kinase assay
Sequence of Casein kinase I isoform epsilon (Homo sapiens) (P49674 whole entry, looked up, the tested form may be a part, canonical isoform): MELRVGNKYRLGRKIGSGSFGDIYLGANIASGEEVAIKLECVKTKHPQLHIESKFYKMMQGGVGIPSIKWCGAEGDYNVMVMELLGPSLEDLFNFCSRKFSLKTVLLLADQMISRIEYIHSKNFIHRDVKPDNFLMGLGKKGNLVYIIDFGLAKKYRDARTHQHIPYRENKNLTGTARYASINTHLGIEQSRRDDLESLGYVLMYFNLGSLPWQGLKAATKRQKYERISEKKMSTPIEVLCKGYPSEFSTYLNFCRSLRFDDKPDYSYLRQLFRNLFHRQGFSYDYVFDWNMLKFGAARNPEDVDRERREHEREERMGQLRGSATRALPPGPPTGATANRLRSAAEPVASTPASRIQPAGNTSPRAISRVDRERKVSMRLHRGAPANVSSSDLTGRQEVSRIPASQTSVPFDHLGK

[4] = target: Dual specificity tyrosine-phosphorylation-regulated kinase 1A (Rattus norvegicus) (UniProt Q63470); assay: Inhibition of recombinant rat DYRK1A kinase domain (1 to 499 residues) expressed in bacteria assessed as enzyme residual activity using KKISGRLSPIMTEQ as substrate at 10 uM incubated for 30 mins in presence of ATP by ADP-Glo kinase assay
HBL-100 = assay: cells; details: Homo sapiens, HBL-100, 48 h
Description: Antiproliferative activity against human HBL-100 cells assessed as reduction in cell viability incubated for 48 hrs by MTS assay

[5] = target: Dual specificity tyrosine-phosphorylation-regulated kinase 1A (Rattus norvegicus, UniProt Q63470); assay: Inhibition of recombinant rat DYRK1A kinase domain (1 to 499 residues) expressed in bacteria using KKISGRLSPIMTEQ as substrate incubated for 30 mins in presence of ATP by ADP-Glo kinase assay
HCT-116 = assay: cells; details: Homo sapiens, HCT-116, 48 h
Description: Antiproliferative activity against human HCT-116 cells assessed as reduction in cell viability incubated for 48 hrs by MTS assay

[6] = target: T2, Serine/threonine-protein kinase pim-1 (Homo sapiens, UniProt P11309); assay: Inhibition of human recombinant PIM-1 expressed in bacteria assessed as enzyme residual activity using histone H1 as substrate at 1 uM incubated for 30 mins in presence of ATP by ADP-Glo kinase assay
Target sequence in this assay (P11309 whole entry, looked up): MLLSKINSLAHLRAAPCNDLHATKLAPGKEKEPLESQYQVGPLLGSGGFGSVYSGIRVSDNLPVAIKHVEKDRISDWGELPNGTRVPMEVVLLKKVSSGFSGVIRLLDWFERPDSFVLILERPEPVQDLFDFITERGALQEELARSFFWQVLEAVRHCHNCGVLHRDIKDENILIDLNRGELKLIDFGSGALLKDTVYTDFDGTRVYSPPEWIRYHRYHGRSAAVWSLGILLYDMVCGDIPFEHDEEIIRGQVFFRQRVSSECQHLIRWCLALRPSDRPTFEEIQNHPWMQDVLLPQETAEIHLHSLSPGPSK

[7] = target: T2, Serine/threonine-protein kinase pim-1; assay: Inhibition of human recombinant PIM-1 expressed in bacteria assessed as enzyme residual activity using histone H1 as substrate at 10 uM incubated for 30 mins in presence of ATP by ADP-Glo kinase assay
Target sequence in this assay (P11309 whole entry, looked up): as above

TERT-RPE1 = assay: cells; details: Homo sapiens, RPE-1, 48 h
Description: Cytotoxicity against human TERT-RPE1 cells assessed as reduction in cell viability incubated for 48 hrs by MTS assay

[8] = target: T2, Serine/threonine-protein kinase pim-1; assay: Inhibition of human recombinant PIM-1 expressed in bacteria using histone H1 as substrate incubated for 30 mins in presence of ATP by ADP-Glo kinase assay
Target sequence in this assay (P11309 whole entry): as the sequence (P11309 whole entry, looked up) above

[9] = target: Dual specificity protein kinase CLK1 (Mus musculus) (UniProt P22518); assay: Inhibition of recombinant mouse CLK1 expressed in bacteria assessed as enzyme residual activity using GRSRSRSRSRSR as substrate at 10 uM incubated for 30 mins in presence of ATP by ADP-Glo kinase assay
Sequence of Dual specificity protein kinase CLK1 (Mus musculus) (P22518 whole entry, looked up, the tested form may be a part): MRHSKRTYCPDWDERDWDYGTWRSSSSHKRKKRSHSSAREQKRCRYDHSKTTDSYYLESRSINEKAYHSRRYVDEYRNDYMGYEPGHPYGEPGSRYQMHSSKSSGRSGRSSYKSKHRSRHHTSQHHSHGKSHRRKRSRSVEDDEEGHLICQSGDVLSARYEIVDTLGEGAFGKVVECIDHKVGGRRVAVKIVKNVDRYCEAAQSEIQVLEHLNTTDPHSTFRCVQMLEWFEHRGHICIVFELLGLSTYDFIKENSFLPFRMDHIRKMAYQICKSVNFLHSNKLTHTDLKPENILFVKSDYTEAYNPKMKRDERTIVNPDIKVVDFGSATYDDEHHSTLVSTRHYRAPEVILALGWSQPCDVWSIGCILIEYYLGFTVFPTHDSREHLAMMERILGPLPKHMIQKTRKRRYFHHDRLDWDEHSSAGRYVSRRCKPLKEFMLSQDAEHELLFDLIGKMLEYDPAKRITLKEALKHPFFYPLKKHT

[10] = target: T3, Serine/threonine-protein kinase haspin (Homo sapiens, UniProt Q8TF76); assay: Inhibition of recombinant human Haspin kinase domain (470 to 798 residues) expressed in bacteria using histone H3 (1 to 21) peptide as substrate incubated for 30 mins in presence of ATP by ADP-Glo kinase assay
T3 sequence (Q8TF76 whole entry): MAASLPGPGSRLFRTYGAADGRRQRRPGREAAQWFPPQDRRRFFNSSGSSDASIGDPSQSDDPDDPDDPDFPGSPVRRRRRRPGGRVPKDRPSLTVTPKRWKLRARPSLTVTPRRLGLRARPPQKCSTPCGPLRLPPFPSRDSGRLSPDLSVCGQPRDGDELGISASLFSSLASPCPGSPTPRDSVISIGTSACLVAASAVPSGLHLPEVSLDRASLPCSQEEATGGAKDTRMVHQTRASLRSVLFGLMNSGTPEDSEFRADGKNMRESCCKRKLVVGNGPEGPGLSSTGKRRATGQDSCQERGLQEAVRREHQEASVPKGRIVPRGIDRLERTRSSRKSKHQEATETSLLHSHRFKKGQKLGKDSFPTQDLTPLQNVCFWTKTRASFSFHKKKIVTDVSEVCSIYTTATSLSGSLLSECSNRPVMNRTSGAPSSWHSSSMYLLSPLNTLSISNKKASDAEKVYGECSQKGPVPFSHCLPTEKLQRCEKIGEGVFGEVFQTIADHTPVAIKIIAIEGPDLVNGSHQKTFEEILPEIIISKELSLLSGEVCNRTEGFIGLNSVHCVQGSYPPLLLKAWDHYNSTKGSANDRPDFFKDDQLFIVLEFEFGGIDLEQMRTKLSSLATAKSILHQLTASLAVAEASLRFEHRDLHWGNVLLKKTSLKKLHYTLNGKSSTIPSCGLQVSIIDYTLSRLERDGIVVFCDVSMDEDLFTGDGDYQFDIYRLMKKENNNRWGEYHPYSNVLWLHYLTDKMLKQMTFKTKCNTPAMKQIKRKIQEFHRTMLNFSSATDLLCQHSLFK

[11] = target: Glycogen synthase kinase-3 beta (Homo sapiens) (UniProt P49841); assay: Inhibition of human recombinant GSK-3 beta expressed in baculovirus-infected Sf9 cells assessed as enzyme residual activity using YRRAAVPPSPSLSRHSSPHQSpEDEEE as substrate at 10 uM incubated for 30 mins in presence of ATP by ADP-Glo kinase assay
Sequence of Glycogen synthase kinase-3 beta (Homo sapiens) (P49841 whole entry, looked up, canonical isoform): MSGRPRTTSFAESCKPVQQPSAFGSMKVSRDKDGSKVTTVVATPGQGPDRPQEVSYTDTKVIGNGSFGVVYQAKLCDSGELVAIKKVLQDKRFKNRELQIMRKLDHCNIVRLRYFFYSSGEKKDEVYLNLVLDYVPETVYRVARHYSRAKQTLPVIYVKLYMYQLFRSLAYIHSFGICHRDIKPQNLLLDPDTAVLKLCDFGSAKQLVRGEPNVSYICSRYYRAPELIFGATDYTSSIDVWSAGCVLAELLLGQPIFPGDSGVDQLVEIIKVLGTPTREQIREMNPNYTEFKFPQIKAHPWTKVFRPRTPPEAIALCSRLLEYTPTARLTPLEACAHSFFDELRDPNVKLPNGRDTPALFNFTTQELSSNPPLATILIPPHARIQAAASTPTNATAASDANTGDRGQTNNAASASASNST

[12] = target: Casein kinase I isoform epsilon (Homo sapiens) (UniProt P49674); assay: Inhibition of human recombinant CK1 epsilon expressed in baculovirus-infected Sf9 cells assessed as enzyme residual activity using RRKHAAIGSpAYSITA as substrate at 1 uM incubated for 30 mins in presence of ATP by ADP-Glo kinase assay
[13] = target: Glycogen synthase kinase-3 beta (Homo sapiens) (UniProt P49841); assay: Inhibition of human recombinant GSK-3 beta expressed in baculovirus-infected Sf9 cells assessed as enzyme residual activity using YRRAAVPPSPSLSRHSSPHQSpEDEEE as substrate at 1 uM incubated for 30 mins in presence of ATP by ADP-Glo kinase assay
[14] = target: T4, Cyclin-dependent kinase 5/CDK5 activator 1 (Homo sapiens) (UniProt Q00535+Q15078); assay: Inhibition of human recombinant CDK5/p25 expressed in bacteria assessed as enzyme residual activity using histone H1 as substrate at 10 uM incubated for 30 mins in presence of ATP by ADP-Glo kinase assay
T4 sequence (Q00535 whole entry): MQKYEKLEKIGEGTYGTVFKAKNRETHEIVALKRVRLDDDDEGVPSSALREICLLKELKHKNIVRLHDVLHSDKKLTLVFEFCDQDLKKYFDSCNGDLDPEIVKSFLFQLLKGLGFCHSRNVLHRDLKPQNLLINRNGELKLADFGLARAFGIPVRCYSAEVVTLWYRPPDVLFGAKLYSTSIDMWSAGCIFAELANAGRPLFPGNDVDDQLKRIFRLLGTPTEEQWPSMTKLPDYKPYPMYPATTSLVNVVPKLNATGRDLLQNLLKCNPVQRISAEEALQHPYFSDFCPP
T4 sequence (Q15078 99-307 partner limits assumed): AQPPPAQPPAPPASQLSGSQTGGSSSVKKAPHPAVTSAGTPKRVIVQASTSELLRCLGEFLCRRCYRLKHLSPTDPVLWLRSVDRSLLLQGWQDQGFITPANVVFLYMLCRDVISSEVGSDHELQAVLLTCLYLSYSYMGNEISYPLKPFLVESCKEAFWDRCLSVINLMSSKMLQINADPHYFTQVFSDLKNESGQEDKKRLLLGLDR

SH-SY5Y = assay: cells; details: Homo sapiens, 48 h
Description: Antiproliferative activity against human SH-SY5Y cells assessed as reduction in cell viability incubated for 48 hrs by MTS assay

U2OS = assay: cells; details: Homo sapiens, 48 h
Description: Antiproliferative activity against human U2OS cells assessed as reduction in cell viability incubated for 48 hrs by MTS assay

[15] = target: Dual specificity tyrosine-phosphorylation-regulated kinase 1A (Rattus norvegicus) (UniProt Q63470); assay: Inhibition of recombinant rat DYRK1A kinase domain (1 to 499 residues) expressed in bacteria assessed as enzyme residual activity using KKISGRLSPIMTEQ as substrate at 1 uM incubated for 30 mins in presence of ATP by ADP-Glo kinase assay
[16] = target: Dual specificity protein kinase CLK1 (Mus musculus) (UniProt P22518); assay: Inhibition of recombinant mouse CLK1 expressed in bacteria assessed as enzyme residual activity using GRSRSRSRSRSR as substrate at 1 uM incubated for 30 mins in presence of ATP by ADP-Glo kinase assay
CDK9/cyclin T1 = CDK9/cyclin T1 (Homo sapiens, UniProt P50750); assay: Inhibition of human recombinant CDK9/cyclin T expressed in baculovirus-infected Sf9 cells using YSPTSPSYSPTSPSYSPTSPSKKKK as substrate incubated for 30 mins in presence of ATP by ADP-Glo kinase assay
Sequence of CDK9/cyclin T1 (O60563 whole entry): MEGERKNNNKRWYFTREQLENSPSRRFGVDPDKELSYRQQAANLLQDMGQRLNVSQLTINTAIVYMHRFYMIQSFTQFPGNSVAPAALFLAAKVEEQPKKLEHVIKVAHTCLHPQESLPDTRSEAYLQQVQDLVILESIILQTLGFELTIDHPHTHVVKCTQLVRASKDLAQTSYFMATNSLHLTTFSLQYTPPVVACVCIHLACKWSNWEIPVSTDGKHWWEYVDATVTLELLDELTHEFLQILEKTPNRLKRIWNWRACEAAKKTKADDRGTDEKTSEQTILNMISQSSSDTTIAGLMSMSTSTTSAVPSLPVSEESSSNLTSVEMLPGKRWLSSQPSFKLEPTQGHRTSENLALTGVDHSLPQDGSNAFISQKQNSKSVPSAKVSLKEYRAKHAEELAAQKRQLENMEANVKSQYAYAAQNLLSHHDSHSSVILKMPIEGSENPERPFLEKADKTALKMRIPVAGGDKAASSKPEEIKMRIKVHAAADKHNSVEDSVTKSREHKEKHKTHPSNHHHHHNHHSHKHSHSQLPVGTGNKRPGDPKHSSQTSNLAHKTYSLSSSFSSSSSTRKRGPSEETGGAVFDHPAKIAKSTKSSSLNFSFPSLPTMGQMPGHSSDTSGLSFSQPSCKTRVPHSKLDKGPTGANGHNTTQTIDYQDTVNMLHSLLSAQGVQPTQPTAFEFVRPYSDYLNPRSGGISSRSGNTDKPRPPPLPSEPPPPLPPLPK
Sequence of CDK9/cyclin T1 (P50750 whole entry): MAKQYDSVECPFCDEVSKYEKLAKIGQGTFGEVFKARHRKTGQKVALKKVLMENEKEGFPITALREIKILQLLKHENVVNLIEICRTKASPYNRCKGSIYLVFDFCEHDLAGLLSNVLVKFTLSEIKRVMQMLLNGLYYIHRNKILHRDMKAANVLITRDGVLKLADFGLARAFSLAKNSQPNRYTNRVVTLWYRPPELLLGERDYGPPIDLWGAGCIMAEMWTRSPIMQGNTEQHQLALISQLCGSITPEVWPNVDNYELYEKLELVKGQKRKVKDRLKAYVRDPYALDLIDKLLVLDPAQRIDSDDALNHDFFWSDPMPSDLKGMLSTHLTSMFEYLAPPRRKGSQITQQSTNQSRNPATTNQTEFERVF

[17] = target: T4, Cyclin-dependent kinase 5/CDK5 activator 1 (Homo sapiens); assay: Inhibition of human recombinant CDK5/p25 expressed in bacteria assessed as enzyme residual activity using histone H1 as substrate at 1 uM incubated for 30 mins in presence of ATP by ADP-Glo kinase assay
[18] = target: Dual specificity protein kinase CLK1 (Mus musculus, UniProt P22518); assay: Inhibition of recombinant mouse CLK1 expressed in bacteria using GRSRSRSRSRSR as substrate incubated for 30 mins in presence of ATP by ADP-Glo kinase assay
Sequence of Dual specificity protein kinase CLK1 (P22518 whole entry, the tested form may be a part): as the sequence (P22518 whole entry, looked up, the tested form may be a part) above

Homo sapiens = species: Homo sapiens; assay: Selectivity index, ratio of IC50 for human recombinant CDK9/cyclin T expressed in baculovirus-infected Sf9 cells to IC50 for recombinant human Haspin kinase domain (470 to 798 residues) expressed in bacteria
[19] = Selectivity index, ratio of IC50 for recombinant mouse CLK1 expressed in bacteria to IC50 for recombinant human Haspin kinase domain (470 to 798 residues) expressed in bacteria

| Structure (SMILES) | Activity [1] [%] | Activity [2] [%] | Activity [3] [%] | Activity [4] [%] | IC50 [5] [nM] | Activity [6] [%] | Activity [7] [%] | IC50 [8] [nM] | Activity [9] [%] | IC50 [10] [nM] | Activity [11] [%] | Activity [12] [%] | Activity [13] [%] | Activity [14] [%] | Activity [15] [%] | Activity [16] [%] | IC50 (CDK9/cyclin T1) [nM] | Activity [17] [%] | IC50 [18] [nM] | Ratio IC50 [19] | also measured |
| --- | --- | --- | --- | --- | --- | --- | --- | --- | --- | --- | --- | --- | --- | --- | --- | --- | --- | --- | --- | --- | --- |
| Ic1c[nH]c2cc3cnccc3cc12 | 35 | 62 | 27 | 16 | 564 | 50 | 23 | 675 | 27 | 114 | 74 | 69 | 77 | 100 | 50 | 69 |  |  |  |  | EC50 (HBL-100): > 50000 nM; EC50 (HCT-116): > 50000 nM; EC50 (TERT-RPE1): > 50000 nM; EC50 (SH-SY5Y): > 50000 nM; EC50 (U2OS): > 50000 nM |
| O=Cc1c[nH]c2cc3cnccc3cc12 | 7 | 7 | 34 | 7 | 495 | 64 | 33 |  | 26 | 158 | 23 | 80 | 55 | 57 | 21 | 53 | 151 | 84 | 182 |  | Ratio IC50 (Homo sapiens): 0.96 |
| Brc1c[nH]c2cc3cnccc3cc12 | 27 | 39 | 77 | 11 | 916 | 48 | 24 | 804 | 32 | 150 | 62 | 100 | 89 | 48 | 36 | 72 | 999 | 100 |  |  | EC50 (HBL-100): > 50000 nM; EC50 (HCT-116): > 50000 nM; EC50 (TERT-RPE1): > 50000 nM; EC50 (SH-SY5Y): > 50000 nM; EC50 (U2OS): > 50000 nM |
| Nc1nccc(-c2c[nH]c3cc4cnccc4cc23)n1 | 16 | 56 | 10 | 0 | 560 | 20 | 4 | 225 | 5 | 122 | 35 | 46 | 76 | 21 | 25 | 16 |  | 79 | 205 | 1.7 |  |
| ON=Cc1c[nH]c2cc3cnccc3cc12 | 2 | 13 | 46 | 1 | 290 | 43 | 11 |  |  | 130 | 27 | 89 | 80 | 32 | 9 | 15 | 222 | 51 | 139 | 1.1 |  |
| CC(=O)c1c[nH]c2cc3cnccc3cc12 | 20 | 34 | 62 | 0 | 860 | 80 | 27 |  | 10 | 157 | 27 | 98 | 69 | 13 | 25 | 21 |  | 31 | 265 | 1.7 |  |
| N#Cc1c[nH]c2cc3cnccc3cc12 | 6 | 34 | 47 | 5 | 182 | 100 | 95 |  | 0 | 75 | 26 | 92 | 59 | 34 | 38 | 19 | 178 | 69 | 360 |  | Ratio IC50 (Homo sapiens): 2.4 |
